The target of this experiment is Caspase-3 (Homo sapiens) + Caspase-9 (Homo sapiens) (UniProt P42574+P55211). In words: caspase-9/caspase-3 cascade inhibitors, dose response, selectivity assay, biochemical, fluorescence, uHTS hits (AID 588574). To be noted: LZ-caspase-9/caspase-3 coupled fluorogenic substrate.

Active and inactive are the calls of the source. The rule behind the calls is not given here. Some results are limits rather than exact numbers.

Chain of Caspase-3 (Homo sapiens) + Caspase-9 (Homo sapiens) (P42574 whole entry, looked up): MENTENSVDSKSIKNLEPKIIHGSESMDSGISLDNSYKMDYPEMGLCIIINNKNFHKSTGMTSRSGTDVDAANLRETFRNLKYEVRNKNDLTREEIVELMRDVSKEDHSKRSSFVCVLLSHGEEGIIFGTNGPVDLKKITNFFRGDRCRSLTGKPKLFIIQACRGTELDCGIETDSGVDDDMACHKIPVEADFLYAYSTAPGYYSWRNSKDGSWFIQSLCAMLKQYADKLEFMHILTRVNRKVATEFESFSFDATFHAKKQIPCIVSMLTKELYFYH
Chain of Caspase-3 (Homo sapiens) + Caspase-9 (Homo sapiens) (P55211 whole entry, looked up): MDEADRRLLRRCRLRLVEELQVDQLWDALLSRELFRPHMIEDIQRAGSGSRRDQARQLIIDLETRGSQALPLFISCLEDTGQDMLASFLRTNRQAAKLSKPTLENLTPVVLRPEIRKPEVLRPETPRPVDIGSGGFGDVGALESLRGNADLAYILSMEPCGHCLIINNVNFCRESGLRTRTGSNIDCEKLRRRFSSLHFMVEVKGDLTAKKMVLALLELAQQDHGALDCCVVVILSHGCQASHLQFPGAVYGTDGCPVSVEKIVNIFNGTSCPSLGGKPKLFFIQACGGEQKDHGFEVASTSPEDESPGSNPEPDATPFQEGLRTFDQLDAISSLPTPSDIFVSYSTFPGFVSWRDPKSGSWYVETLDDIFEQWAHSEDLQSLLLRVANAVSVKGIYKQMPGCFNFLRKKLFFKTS

The IC50 is the concentration that inhibits the measured activity by half. Regarding `CCC(=O)N(C1=C(NC)C(=O)c2ccccc2C1=O)C(C)C`, the IC50 is 24.6 µM.
For `O=[N+]([O-])c1ccc(N/N=C/c2ccc(O)c(O)c2O)c(S(=O)(=O)N2CCOCC2)c1`, the IC50 is 20.4 µM.
The value for `Oc1ccccc1/C=N/Nc1cc(N2CCCC2)nc(N2CCCC2)n1` was 2.51 µM; that for `CC(C)c1ccc(/C=N/Nc2cc(N3CCOCC3)nc(N3CCOCC3)n2)cc1` was > 100 µM (inactive).
`O=C(N/N=C/c1cc(Cl)cc([N+](=O)[O-])c1O)NC12CC3CC(CC(C3)C1)C2`: the IC50 was 9.15 µM.
On to `CCN(CC)CCOC(=O)c1ccc(N/C=C(/C#N)c2nc(-c3cc4ccccc4oc3=O)cs2)cc1`, for which the IC50 was > 100 µM (inactive).
Take `CC(=O)N(Cc1ccc(F)cc1)C1=C(NCCc2ccccc2)C(=O)c2ccccc2C1=O`: the IC50 is 8.49 µM.
Turning to `COc1ccc(NC2=C(NCCO)C(=O)c3ccccc3C2=O)cc1`, the IC50 is 10.6 µM.
`CCCCCCc1cc2cc(-c3nnc(-c4ccccc4)o3)c(=O)oc2cc1O`: the IC50 was 6.31 µM.
As for `CCOC(=O)C1=C(c2ccccc2)NC(N)=NC1c1ccc(OCc2ccc(Cl)cc2)c(OC)c1` (stereo not drawn), the IC50 is 15.8 µM.
`CCN(CC)CCOC(=O)c1ccc(N/C=C(/C#N)c2nc(-c3ccc(OC)c(OC)c3)cs2)cc1`: the IC50 was > 100 µM (inactive).
The value for `O=C1C(Cl)=C(NCc2cccnc2)C(=O)c2ccccc21` was 8.43 µM; that for `Cc1ccc(NC2=C(NCCO)C(=O)c3ccccc3C2=O)cc1` was 6.91 µM; that for `O=c1cc(N/N=C/c2ccccc2)[nH]c(=O)[nH]1` was 19.4 µM.
Consider `Oc1cccc(/C=N/Nc2cc(N3CCCC3)nc(N3CCCC3)n2)c1`, for which the IC50 is 12.5 µM.
The value for `Oc1ccc(/C=N\Nc2cc(N3CCOCC3)nc(N3CCOCC3)n2)c(O)c1` was 57.9 µM; that for `CSc1ccc(C=NNc2ccc(S(=O)(=O)Nc3ccccc3C(=O)O)cc2[N+](=O)[O-])cc1` was 8.5 µM; that for `COc1ccc(/C=N/Nc2cc(N3CCCC3)nc(N3CCCC3)n2)cc1` was 3.91 µM.
The value for `CCCc1[nH]nc2c1C(c1ccc(OC)c(CSC3=NCCS3)c1)C(C#N)=C(N)O2` (stereo not drawn) was 14.3 µM.
For `CC1=NN(c2ccc(C(F)(F)F)cn2)C(=O)C1`, the IC50 is 8.21 µM.
Turning to `CCOC(=O)C1=C(c2ccccc2)NC(N)=NC1c1ccc(OCc2ccc(C(=O)OC)cc2)cc1` (stereo not drawn), the IC50 was 16 µM.
Consider `O=C1C(Cl)=C(NCCN2CCCCC2)C(=O)c2ccccc21`, for which the IC50 is 6.08 µM.
For `O=C1C(C2=C(O)c3ccccc3C2=O)=Nc2ccccc21`, the IC50 was 5.3 µM.
The value for `Oc1ccc(/C=N/Nc2cc(N3CCCC3)nc(N3CCCC3)n2)cc1` was 5.44 µM; that for `O=C1C(Cl)=C(NCCN2CCOCC2)C(=O)c2ccccc21` was 23.3 µM.
Take `CCN(CC)CCOC(=O)c1ccc(N/C=C(/C#N)c2nc(-c3ccc4c(c3)OCO4)cs2)cc1`: the IC50 was > 100 µM (inactive).
For the molecule `COc1ccc(/C=N/Nc2cc(N(C)C)nc(N(C)C)n2)cc1`, the IC50 was 1.16 µM.
Regarding `CN(C)c1cc(N/N=C\c2ccccc2)nc(N(C)C)n1`, the IC50 was 3.53 µM.
Regarding `O/C=c1\ccc2cccc3nc(C(F)(F)F)nc1c23`, the IC50 was 11.8 µM.
On to `CCN(CC)CCCNC1=C(Cl)C(=O)c2ccccc2C1=O`, for which the IC50 is 16.1 µM.
As for `CC1(C)C=C2C(=NN(c3ccccc3)C(N)=C2C#N)CO1`, the IC50 is 4.31 µM.
On to `O=C1C(O)=C(O)C(=O)c2ccccc21`, for which the IC50 is 10.2 µM.
With `CC1=NN(c2ccc(Cl)cc2)C(=O)C1C(c1ccccc1O)c1c(C)[nH]n(-c2ccc(Cl)cc2)c1=O` (stereo not drawn), the IC50 is 46.1 µM.
Take `Cc1[nH]n(-c2ccccc2)c(=O)c1/C=N/Nc1nncc(-c2ccccc2)n1`: the IC50 was 2.23 µM.
As for `CC(C)CCC(C)N=Cc1c(O)n(Cc2ccccc2)c(=O)c2ccccc12` (stereo not drawn), the IC50 is 4.43 µM.
Regarding `Oc1ccc(/C=N/Nc2cc(N3CCCC3)nc(N3CCCC3)n2)cc1O`, the concentration for half-maximal inhibition (IC50) is 10.7 µM.
With `CN(C)c1cc(N/N=C/c2ccccc2C(F)(F)F)nc(N(C)C)n1`, the IC50 was 6.79 µM.
Consider `CCCCCCc1cc2cc(-c3nnc(-c4ccccc4OC)o3)c(=O)oc2cc1O`, for which the IC50 is 14.7 µM.

(Values after PubChem BioAssay AID588574 (Sanford-Burnham Center for Chemical Genomics, 2011).)
